Experiments:
[1] = Anti-oxidant capacity: fluorescein consumption induced by AAPH-derived peroxyl radicals; details: for effect on consumption of fluorescein: fluorescein 10 µM, AAPH 50 mM, phosphate buffer pH 7.4, 37 °C, cisplatin 10 µM, PN149 10, 25, 50 µM
Description: The influence of PN149 on the rates of the reaction of fluorescein with free radicals generated by the azo initiator 2,2′-azobis(2-amidinopropane) dihydrochloride (AAPH) was studied according to [35] in phosphate buffer (PB, 50 mM, pH 7.4) by measuring the decay of the probe at 494 nm with absorption spectrophotometer Specord UV–Vis equipped with a thermostated cell maintained at 37 °C. […] The lag phase of the reaction means no changes in the optical density of the reaction mixture. AAPH and fluorescein were purchased from Sigma-Aldrich, JM216 [e-ammine-d-(cyclohexylamine)-a,f-bis(acetato)-b,c-dichloroplatinum(IV)] was obtained as described in [36].

ciPTEC [2] = test: Gene expression profiling by high-throughput RT-qPCR in ciPTECs; format: cell-based, human; details: 24 h; for expression of genes related to transcription factors (general): PN149 20 µM, cisplatin 50 µM, oxaliplatin 150 µM; for HMOX1 gene expression: ROS-inducible gene; for IL-8 gene expression: marker for inflammation; for PMAIP1 gene expression: pro-apoptotic gene
Description: Gene expression profiles were generated using a high-throughput RT-qPCR method previously established in the institute. ciPTECs were cultivated in T25 flasks as stated before. […] RNA isolation and generation of gene expression profiles using a Fluidigm dynamic array on a BioMark™ (Rheinau, Germany) system were performed as previously described. For comparative analysis of ciPTEC with primary kidney cells, 5 × 10^5 NT cells were seeded in 10 cm dishes and cultivated for 24 h. […] Gene expression profiles in ciPTEC were generated in three independent experiments. Due to the limited amount of tissue material, gene expression analysis in primary kidney cells was performed in two independent experiments.

ciPTEC [3] = test: Cytotoxicity by relative cell count (RCC); format: cell-based, human; details: 24 h incubation; for cell number compared to the control: 48 h post-cultivation; for IC50: cell count after 48 h post-cultivation
Description: The renal cell line ciPTEC (conditionally immortalized proximal tubule epithelial cells), which was purchased from Dr. Martijn Wilmer, was used in the current study. ciPTECs were cultured in DMEM-HAM’s F12 phenol red-free medium (Gibco, Thermo Fisher Scientific, Dreieich, Germany) supplemented with 10% fetal calf serum (FCS) (Invitrogen, Darmstadt, Germany), 5 µg/mL insulin, 5 µg/mL transferrin, 5 ng/mL selenium, 36 ng/mL hydrocortisone, 10 ng/mL EGF (epidermal growth factor) and 40 pg/mL tri-iodothyronine (Sigma-Aldrich, Steinheim, Germany). For maintaining the proliferation status, cells were cultured at 33 °C in a humidified atmosphere of 5% CO2 in medium supplemented with 1% penicillin/streptomycin (P/S) (Sigma-Aldrich, Steinheim, Germany). […] For comparative analysis with the data obtained with the permanent cell line ciPTEC, studies were performed with primary patient-derived renal normal tissue cells (NT), which were obtained from patients at the University Medical Center Mainz. Cells were isolated from primary renal cancer samples of patients who underwent nephrectomy at the Department of Urology, University Medical Center Mainz. The study was performed in agreement with the Declaration of Helsinki and approved by local ethics committee (No. 837.005.09, Landesärztekammer Rheinland-Pfalz, Mainz, Germany). Each patient provided informed consent. NT cells were cultivated in RPMI-1640 medium (Sigma-Aldrich, Steinheim, Germany) containing 10% FCS and 5% P/S at 37 °C in a humidified atmosphere of 5% CO2.
Toxicity was determined by relative cell count (RCC). ciPTECs were seeded in duplicates in T25 flasks and cultivated as stated before. […] Cell count was then determined using a CASY® cell counter (CASY® TTC Cell Counter & Analyzer System). The cell counts of the treated samples were normalized to the untreated control to obtain the RCC expressed as percentage. RCC was determined in three independent experiments.

ciPTEC [4] = test: Intracellular platinum accumulation by AAS in ciPTECs; format: in vitro ADME, human; details: 2 h
Description: The renal cell line ciPTEC (conditionally immortalized proximal tubule epithelial cells), which was purchased from Dr. Martijn Wilmer, was used in the current study. ciPTECs were cultured in DMEM-HAM’s F12 phenol red-free medium (Gibco, Thermo Fisher Scientific, Dreieich, Germany) supplemented with 10% fetal calf serum (FCS) (Invitrogen, Darmstadt, Germany), 5 µg/mL insulin, 5 µg/mL transferrin, 5 ng/mL selenium, 36 ng/mL hydrocortisone, 10 ng/mL EGF (epidermal growth factor) and 40 pg/mL tri-iodothyronine (Sigma-Aldrich, Steinheim, Germany). For maintaining the proliferation status, cells were cultured at 33 °C in a humidified atmosphere of 5% CO2 in medium supplemented with 1% penicillin/streptomycin (P/S) (Sigma-Aldrich, Steinheim, Germany). […]
Atomic absorption spectroscopy (AAS) was used to determine the intracellular accumulation after treatment with the platinum compounds. ciPTECs were seeded in T75 flasks and cultivated as stated before. […] Cells were then harvested via centrifugation and total cell count was determined. […] The residue was dissolved in 0.2% HNO3 and platinum amount was analyzed at a wavelength of […] in a graphite furnace using a PinAAcle 900 T (Perkin Elmer, Waltham, MA, USA). […] Intracellular accumulation was determined in three independent experiments and was calculated as ng Pt/10^6 cells.

MATE1 = details: cited from earlier work
[5] = test system: organic cation transporter 2 (OCT2); set-up: method as in PMID 17582384, PMID 21144842; details: cited from earlier work
MATE2-K = details: cited from earlier work
[6] = test system: primary patient-derived renal normal tissue cells (NT); test: Gene expression profiling by high-throughput RT-qPCR in primary renal normal tissue cells; format: cell-based, human; details: normal tissue (primary kidney cells), 20 µM cisplatin, 24 h
Description: The renal cell line […] (conditionally immortalized proximal tubule epithelial cells), which was purchased from Dr. Martijn Wilmer, was used in the current study. […] For maintaining the proliferation status, cells were cultured at 33 °C in a humidified atmosphere of 5% CO2 in medium supplemented with 1% penicillin/streptomycin (P/S) (Sigma-Aldrich, Steinheim, Germany). For the experiments, […] were seeded at a density of 55,000 cells/cm^2 in cell culture flasks and were cultivated for 24 h at 33 °C. After 24 h, cells were transferred to 37 °C for maturation, while the medium was refreshed with medium containing no P/S. Cells were kept at 37 °C for 7 days while the medium was replaced every 2-3 days. For comparative analysis with the data obtained with the permanent cell line […], studies were performed with primary patient-derived renal normal tissue cells (NT), which were obtained from patients at the University Medical Center Mainz. Cells were isolated from primary renal cancer samples of patients who underwent nephrectomy at the Department of Urology, University Medical Center Mainz. The study was performed in agreement with the Declaration of Helsinki and approved by local ethics committee (No. 837.005.09, […]-Pfalz, Mainz, Germany). Each patient provided informed consent. […]

[7] = test system: testicular germ cell tumors; set-up: method as in PMID 12835671; details: combination therapy against testicular germ cell tumors ref 2; cited from earlier work
ciPTECs = test system: ciPTECs; set-up: method as in PMID 26821801; details: ciPTECs treated with cisplatin for 24 h, MTT assay ref 45; read-out: TC50 (≡ IC50); cited from earlier work

Compound | effect on consumption of fluorescein [1] | NFKB2 gene expression (ciPTEC [2]) | expression of genes related to transcription factors (general) (ciPTEC [2]) | HMOX1 gene expression (ciPTEC [2]) | HSPA1A gene expression (ciPTEC [2]; heat-shock sensitive gene) | IL-8 gene expression (ciPTEC [2]) | PMAIP1 gene expression (ciPTEC [2]) | cell number compared to the control (ciPTEC [3]; concentration not stated (Figure 2A)) | IC50 (ciPTEC [3]) | kinetics of fluorescein consumption ([1]; JM216 10 M as printed, data not shown) | ng Pt/10^6 Cells (platinum accumulation) (ciPTEC [4]; 50 µM) | affinity for MATE1 (MATE1) | ng Pt/10^6 Cells (platinum accumulation) (ciPTEC [4]; 300 µM carboplatin) | uptake via / affinity to OCT2 [5] | affinity for MATE2-K (MATE2-K) | expression of DNA repair-related genes (ciPTEC [2]; 20 µM cisplatin) | expression of DNA repair-related genes [6] | cure rates [7] | IC50 (ciPTECs) | cell number compared to the control (ciPTEC [3]; 50 µM)
e-ammine-d-(3-amino-2,2,5,5-tetramethylpyrrolidine-1-oxyl)-a,f-bis(butanoato)-b,c-dichloro-platinum(IV) [PN149] | effectively inhibited the consumption of fluorescein | repressed transcript levels | widespread gene repression | strongly induced | strong concentration-dependent increase | repressed gene expression | peaked at 20 µM | less than 5% | 6 µM |  |  |  |  |  |  |  |  |  |  | 
CC(=O)[O-].CC(=O)[O-].N.NC1CCCCC1.[Cl-].[Cl-].[Pt+4] [JM216, e-ammine-d-(cyclohexylamine)-a,f-bis(acetato)-b,c-dichloroplatinum(IV)] |  |  |  |  |  |  |  |  |  | practically coincided with curve 2 for cisplatin |  |  |  |  |  |  |  |  |  | 
O=C1[O][Pt]2([NH][C@@H]3CCCC[C@H]3[NH]2)[O]C1=O [Oxaliplatin] |  | slightly enhanced | widespread gene repression was restricted to the highest concentration used | slightly lesser effects |  | increased transcript levels | strong concentration-dependent increase |  | 51 µM |  | 11 ± 2 ng Pt/10^6 cells | substrate for both MATE1 and MATE2-K |  |  |  |  |  |  |  | 
N.N.O=C([O-])C1(C(=O)[O-])CCC1.[Pt+2] [Carboplatin] |  | repressed transcript levels | no general down-regulation | strongly induced |  | repressed gene expression | strong concentration-dependent increase |  | 175 µM |  |  |  | 18 ± 2 ng Pt/10^6 cells | no affinity to this transporter |  |  |  |  |  | 
N.N.[Cl][Pt][Cl] [Cisplatin] | only slightly slowed down the consumption of fluorescein | slightly enhanced | strong down-regulation of gene transcripts | slightly lesser effects |  | increased transcript levels | strong concentration-dependent increase |  | 13 µM |  |  | only low affinity for MATE1 |  |  | no affinity for MATE2-K | increased expression of several repair-related genes | reduced transcript levels | over 80% | 34 µM | less than 10%
